Experimental data reported in article PMC7023430, “4-Aminobenzoic Acid Derivatives: Converting Folate Precursor to Antimicrobial and Cytotoxic Agents” (Biomolecules, 2019).
Values after ≈ are worked out from the molar mass of the structure shown. Where two headings read alike, the source gives them in different places.

What was measured:
[1] = system: methicillin-resistant Staphylococcus aureus ATCC 43300, CCM 4750 (MRSA); assay: Antibacterial microdilution broth method, MRSA; assay type: cell-based; conditions: Staphylococcus aureus
[2] = system: Staphylococcus epidermidis H 6966/08; assay: Antibacterial microdilution broth method, S. epidermidis; assay type: cell-based; conditions: Staphylococcus epidermidis, H6966/08, S. epidermidis
[3] = system: Enterococcus faecalis ATCC 29212, CCM 4224; assay: Antibacterial microdilution broth method, E. faecalis; assay type: cell-based; conditions: Enterococcus faecalis
[4] = system: Escherichia coli ATCC 25922, CCM 3954; assay: Antibacterial microdilution broth method, E. coli; assay type: cell-based; conditions: Escherichia coli
[5] = system: Mycobacterium tuberculosis H37Rv (331/88); assay: Antimycobacterial micromethod in Šula's medium, M. tuberculosis; assay type: cell-based
[6] = system: Mycobacterium avium 330/88; assay: Antimycobacterial micromethod in Šula's medium, M. avium; assay type: cell-based
[7] = system: Mycobacterium kansasii 235/80; assay: Antimycobacterial micromethod in Šula's medium, M. kansasii 235/80; assay type: cell-based
[8] = system: M. kansasii 6509/96 (clinical isolate); assay: Antimycobacterial micromethod in Šula's medium, M. kansasii 6509/96; assay type: cell-based; conditions: Mycobacterium kansasii
[9] = system: Candida tropicalis 156; assay: Antifungal microdilution broth method, C. tropicalis; assay type: cell-based
Outline: (§1)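 EUCAST-based broth microdilution with slight modifications: compounds dissolved in DMSO and diluted twofold in RPMI-1640 with L-glutamine, 2% glucose, MOPS-buffered to pH 7.0. MIC endpoints were read visually, in duplicate, valid only if parallel MICs differed by no more than one dilution step.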

[10] = system: Candida krusei E28; assay: Antifungal microdilution broth method, C. krusei; assay type: cell-based; conditions: Pichia kudriavzevii
Outline: as §1

[11] = system: Trichosporon asahii 1188; assay: Antifungal microdilution broth method, T. asahii; assay type: cell-based
Outline: as §1

[12] = system: Aspergillus fumigatus 231; assay: Antifungal microdilution broth method, A. fumigatus; assay type: cell-based
Outline: as §1

[13] = system: Lichtheimia corymbifera 272; assay: Antifungal microdilution broth method, L. corymbifera; assay type: cell-based
Outline: as §1

[14] = system: Trichophyton interdigitale 445; assay: Antifungal microdilution broth method, T. interdigitale; assay type: cell-based
Outline: as §1

[15] = system: ESBL-positive Klebsiella pneumoniae J 14368/08
[16] = system: Klebsiella pneumoniae D 11750/08; assay: Antibacterial microdilution broth method, K. pneumoniae; conditions: K. pneumoniae D 11750/08; for MIC KP 24 h: 24 h incubation; for MIC KP 48 h: 48 h incubation
[17] = 24 h incubation, read-out: MIC MRSA 24 h
[18] = 48 h incubation, read-out: MIC MRSA 48 h
[19] = 24 h incubation, read-out: MIC SE 24 h
[20] = 48 h incubation, read-out: MIC SE 48 h
[21] = 24 h incubation, read-out: MIC EF 24 h
[22] = 48 h incubation, read-out: MIC EF 48 h
[23] = 24 h incubation, read-out: MIC EC 24 h
[24] = 48 h incubation, read-out: MIC EC 48 h
[25] = 336 h, 14 days incubation at 37 °C, read-out: MIC Mtb. 331/88 14 d
[26] = 504 h, 21 days incubation at 37 °C, read-out: MIC Mtb. 331/88 21 d
[27] = 330/88, 336 h, 14 days incubation at 37 °C, read-out: MIC M. avium 330/88 14 d
[28] = 330/88, 504 h, 21 days incubation at 37 °C, read-out: MIC M. avium 330/88 21 d
[29] = 235/80, 168 h, 7 days incubation at 37 °C, read-out: MIC M. kansasii 235/80 7 d
[30] = 235/80, 336 h, 14 days incubation at 37 °C, read-out: MIC M. kansasii 235/80 14 d
[31] = 235/80, 504 h, 21 days incubation at 37 °C, read-out: MIC M. kansasii 235/80 21 d
[32] = 168 h, 7 days incubation at 37 °C, read-out: MIC M. kansasii 6509/96 7 d
[33] = 336 h, 14 days incubation at 37 °C, read-out: MIC M. kansasii 6509/96 14 d
[34] = 504 h, 21 days incubation at 37 °C, read-out: MIC M. kansasii 6509/96 21 d

Row | SMILES | MIC [1, 17] [µM] | MIC [1, 18] [µM] | MIC [2, 19] [µM] | MIC [2, 20] [µM] | MIC [3, 21] [µM] | MIC [3, 22] [µM] | MIC [4, 23] [µM] | MIC [4, 24] [µM] | MIC [5, 25] [µM] | MIC [5, 26] [µM] | MIC [6, 27] [µM] | MIC [6, 28] [µM] | MIC [7, 29] [µM] | MIC [7, 30] [µM] | MIC [7, 31] [µM] | MIC [8, 32] [µM] | MIC [8, 33] [µM] | MIC [8, 34] [µM] | MIC ([9]; 24 h, read-out: MIC CT 24 h) [µM] | MIC ([9]; 48 h, read-out: MIC CT 48 h) [µM] | other results
1 | O=C(O)c1ccc(N=Cc2cc(I)cc(I)c2O)cc1 [1q, 4-[(2-Hydroxy-3,5-diiodobenzylidene)amino]benzoic acid] | 62.5 (≈ 30.8 µg/mL) | 62.5 (≈ 30.8 µg/mL) | 62.5 (≈ 30.8 µg/mL) | 62.5 (≈ 30.8 µg/mL) | 500 (≈ 247 µg/mL) | 500 (≈ 247 µg/mL) | 500 (≈ 247 µg/mL) | 500 (≈ 247 µg/mL) | 250 (≈ 123 µg/mL) | 250 (≈ 123 µg/mL) | 500 (≈ 247 µg/mL) | 500 (≈ 247 µg/mL) | 250 (≈ 123 µg/mL) | 500 (≈ 247 µg/mL) | 500 (≈ 247 µg/mL) | 250 (≈ 123 µg/mL) | 250 (≈ 123 µg/mL) | 250 (≈ 123 µg/mL) | 15.6 (≈ 7.7 µg/mL) | 15.6 (≈ 7.7 µg/mL) | MIC ([10]; 24 h, read-out: MIC CK 24 h): 31.2 µM (≈ 15.4 µg/mL); MIC ([10]; 48 h, read-out: MIC CK 48 h): 31.2 µM (≈ 15.4 µg/mL); MIC ([11]; 24 h, read-out: MIC TA 24 h): 15.6 µM (≈ 7.7 µg/mL); MIC ([11]; 48 h, read-out: MIC TA 48 h): 15.6 µM (≈ 7.7 µg/mL); MIC ([12]; 24 h, read-out: MIC AF 24 h): 125 µM (≈ 61.6 µg/mL); MIC ([12]; 48 h, read-out: MIC AF 48 h): 125 µM (≈ 61.6 µg/mL); MIC ([13]; 24 h, read-out: MIC LC 24 h): 250 µM (≈ 123 µg/mL); MIC ([13]; 48 h, read-out: MIC LC 48 h): 250 µM (≈ 123 µg/mL); MIC ([14]; 72 h, read-out: MIC TI 72 h): 7.81 µM (≈ 3.85 µg/mL); MIC ([14]; 120 h, read-out: MIC TI 120 h): 7.81 µM (≈ 3.85 µg/mL); MIC KP-E 24 h [15]: 500 µM (≈ 247 µg/mL); MIC KP-E 48 h [15]: 500 µM (≈ 247 µg/mL); MIC KP 24 h [16]: 500 µM (≈ 247 µg/mL); MIC KP 48 h [16]: 500 µM (≈ 247 µg/mL)
2 | O=C(O)c1ccc(N=Cc2ccc([N+](=O)[O-])o2)cc1 [1r, 4-{[(5-Nitrofuran-2-yl)methylene]amino}benzoic acid] | 62.5 (≈ 16.3 µg/mL) | 62.5 (≈ 16.3 µg/mL) | 125 (≈ 32.5 µg/mL) | 125 (≈ 32.5 µg/mL) | > 500 | > 500 | > 500 | > 500 | 62.5 (≈ 16.3 µg/mL) | 125 (≈ 32.5 µg/mL) | 250 (≈ 65.1 µg/mL) | 500 (≈ 130 µg/mL) | 62.5 (≈ 16.3 µg/mL) | 125 (≈ 32.5 µg/mL) | 250 (≈ 65.1 µg/mL) | 125 (≈ 32.5 µg/mL) | 125 (≈ 32.5 µg/mL) | 250 (≈ 65.1 µg/mL) | 250 (≈ 65.1 µg/mL) | 250 (≈ 65.1 µg/mL) | MIC ([10]; 24 h, read-out: MIC CK 24 h): 62.5 µM (≈ 16.3 µg/mL); MIC ([10]; 48 h, read-out: MIC CK 48 h): 62.5 µM (≈ 16.3 µg/mL); MIC ([11]; 24 h, read-out: MIC TA 24 h): 500 µM (≈ 130 µg/mL); MIC ([11]; 48 h, read-out: MIC TA 48 h): 500 µM (≈ 130 µg/mL); MIC ([12]; 24 h, read-out: MIC AF 24 h): > 500 µM; MIC ([12]; 48 h, read-out: MIC AF 48 h): > 500 µM; MIC ([13]; 24 h, read-out: MIC LC 24 h): > 500 µM; MIC ([13]; 48 h, read-out: MIC LC 48 h): > 500 µM; MIC ([14]; 72 h, read-out: MIC TI 72 h): 250 µM (≈ 65.1 µg/mL); MIC ([14]; 120 h, read-out: MIC TI 120 h): 250 µM (≈ 65.1 µg/mL); MIC KP-E 24 h [15]: 500 µM (≈ 130 µg/mL); MIC KP-E 48 h [15]: 500 µM (≈ 130 µg/mL); MIC KP 24 h [16]: 500 µM (≈ 130 µg/mL); MIC KP 48 h [16]: 500 µM (≈ 130 µg/mL)
3 | O=C(O)c1ccc(NCc2ccccc2O)cc1 [1u, 4-[(2-Hydroxybenzyl)amino]benzoic acid] | > 500 | > 500 | > 500 | > 500 | > 500 | > 500 | > 500 | > 500 | 1000 (≈ 243 µg/mL) | 1000 (≈ 243 µg/mL) | > 1000 | > 1000 | 1000 (≈ 243 µg/mL) | 1000 (≈ 243 µg/mL) | 1000 (≈ 243 µg/mL) | 1000 (≈ 243 µg/mL) | 1000 (≈ 243 µg/mL) | 1000 (≈ 243 µg/mL) | > 500 | > 500 | MIC ([10]; 24 h, read-out: MIC CK 24 h): > 500 µM; MIC ([10]; 48 h, read-out: MIC CK 48 h): > 500 µM; MIC ([11]; 24 h, read-out: MIC TA 24 h): > 500 µM; MIC ([11]; 48 h, read-out: MIC TA 48 h): > 500 µM; MIC ([12]; 24 h, read-out: MIC AF 24 h): > 500 µM; MIC ([12]; 48 h, read-out: MIC AF 48 h): > 500 µM; MIC ([13]; 24 h, read-out: MIC LC 24 h): > 500 µM; MIC ([13]; 48 h, read-out: MIC LC 48 h): > 500 µM; MIC ([14]; 72 h, read-out: MIC TI 72 h): > 500 µM; MIC ([14]; 120 h, read-out: MIC TI 120 h): > 500 µM; MIC KP-E 24 h [15]: >500 µM; MIC KP-E 48 h [15]: >500 µM; MIC KP 24 h [16]: >500 µM; MIC KP 48 h [16]: >500 µM
